According to ChEMBL document CHEMBL2062458, “Cyclic heptapeptides, cordyheptapeptides C-E, from the marine-derived fungus Acremonium persicinum SCSIO 115 and their cytotoxic activities” (J Nat Prod, 2012):
Peptide text beside a SMILES is read from it.

Key:
Assay type in all cases: functional, cell-based
MCF7 = experiment: Cytotoxicity against human MCF7 cells after 72 hrs by sulforhodamine B assay; conditions: MCF7, 72 h
NCI-H460 = experiment: Cytotoxicity against human NCI-H460 cells after 72 hrs by sulforhodamine B assay; conditions: NCI-H460, 72 h
SF-268 = experiment: Cytotoxicity against human SF268 cells after 72 hrs by sulforhodamine B assay; conditions: SF-268, 72 h

CC(C)C[C@@H]1NC(=O)[C@H](C(C)C)NC(=O)[C@H](Cc2ccc(O)cc2)N(C)C(=O)[C@H](Cc2ccccc2)NC(=O)CN(C)C(=O)[C@@H]2CCCN2C(=O)[C@@H](Cc2ccccc2)N(C)C1=O [Cordyheptapeptide C] (HELM PEPTIDE1{F.[meY].V.L.[CN([C@H](Cc1ccccc1)C(=O)[*:2])[*:1]].P.[Sar]}$PEPTIDE1,PEPTIDE1,1:R1-7:R2$$$V2.0) showed an IC50 (MCF7) of 3 µM, an IC50 (NCI-H460) of 11.6 µM and an IC50 (SF-268) of 3.7 µM.

CC(C)C[C@@H]1NC(=O)[C@H](C(C)C)NC(=O)[C@H](Cc2ccc(O)cc2)N(C)C(=O)[C@H](Cc2ccccc2)NC(=O)CN(C)C(=O)[C@@H]2CCCN2C(=O)[C@@H](Cc2ccc(O)cc2)N(C)C1=O [Cordyheptapeptide D] showed an IC50 (MCF7) of 82.7 µM, an IC50 (NCI-H460) of over 100 µM and an IC50 (SF-268) of 45.6 µM.

In the case of CC[C@@H](C)[C@@H]1NC(=O)[C@H](Cc2ccc(O)cc2)N(C)C(=O)[C@H](Cc2ccccc2)NC(=O)CN(C)C(=O)[C@@H]2CCCN2C(=O)[C@@H](Cc2ccc(O)cc2)N(C)C(=O)[C@H](CC(C)C)NC1=O [Cordyheptapeptide E], the IC50 (MCF7) is reported as 2.7 µM, the IC50 (NCI-H460) is reported as 4.5 µM and the IC50 (SF-268) is reported as 3.2 µM.
